Assay results from ChEMBL document CHEMBL5291721, “A preclinical secondary pharmacology resource illuminates target-adverse drug reaction associations of marketed drugs” (Nat Commun, 2023).

Key:
[1] = target: T1, Amine oxidase [flavin-containing] A (Homo sapiens, UniProt P21397); type: functional
T1 sequence (P21397 whole entry): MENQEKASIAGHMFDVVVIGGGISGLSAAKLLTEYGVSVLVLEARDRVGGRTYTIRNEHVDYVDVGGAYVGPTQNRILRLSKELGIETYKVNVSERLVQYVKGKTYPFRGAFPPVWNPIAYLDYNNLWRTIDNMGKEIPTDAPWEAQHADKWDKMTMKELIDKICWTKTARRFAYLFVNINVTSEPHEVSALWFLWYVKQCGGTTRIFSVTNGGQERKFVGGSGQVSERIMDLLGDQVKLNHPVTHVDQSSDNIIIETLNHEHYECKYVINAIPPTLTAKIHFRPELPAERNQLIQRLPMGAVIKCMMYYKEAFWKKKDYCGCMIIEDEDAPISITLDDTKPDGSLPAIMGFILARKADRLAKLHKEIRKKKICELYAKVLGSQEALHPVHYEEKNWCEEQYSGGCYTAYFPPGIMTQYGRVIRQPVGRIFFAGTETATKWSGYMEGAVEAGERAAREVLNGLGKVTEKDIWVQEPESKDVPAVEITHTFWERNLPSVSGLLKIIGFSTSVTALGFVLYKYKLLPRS

[2] = target: T2, Gastrin/cholecystokinin type B receptor (Homo sapiens, UniProt P32239)
T2 sequence (P32239 whole entry): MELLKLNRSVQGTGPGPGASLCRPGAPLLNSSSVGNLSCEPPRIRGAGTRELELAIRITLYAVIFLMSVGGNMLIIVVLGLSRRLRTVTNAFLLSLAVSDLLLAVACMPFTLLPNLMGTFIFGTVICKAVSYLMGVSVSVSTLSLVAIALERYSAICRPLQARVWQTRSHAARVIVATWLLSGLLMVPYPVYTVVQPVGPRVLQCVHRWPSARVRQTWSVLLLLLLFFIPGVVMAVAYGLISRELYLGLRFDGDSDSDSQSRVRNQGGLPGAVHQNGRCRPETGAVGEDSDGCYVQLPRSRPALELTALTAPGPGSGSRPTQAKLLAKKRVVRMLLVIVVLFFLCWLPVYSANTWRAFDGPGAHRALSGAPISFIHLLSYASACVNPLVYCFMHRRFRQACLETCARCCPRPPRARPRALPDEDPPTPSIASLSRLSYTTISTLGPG

[3] = target: T3, Alpha-2A adrenergic receptor (Homo sapiens, UniProt P08913); type: functional, cell-based
T3 sequence (P08913 whole entry): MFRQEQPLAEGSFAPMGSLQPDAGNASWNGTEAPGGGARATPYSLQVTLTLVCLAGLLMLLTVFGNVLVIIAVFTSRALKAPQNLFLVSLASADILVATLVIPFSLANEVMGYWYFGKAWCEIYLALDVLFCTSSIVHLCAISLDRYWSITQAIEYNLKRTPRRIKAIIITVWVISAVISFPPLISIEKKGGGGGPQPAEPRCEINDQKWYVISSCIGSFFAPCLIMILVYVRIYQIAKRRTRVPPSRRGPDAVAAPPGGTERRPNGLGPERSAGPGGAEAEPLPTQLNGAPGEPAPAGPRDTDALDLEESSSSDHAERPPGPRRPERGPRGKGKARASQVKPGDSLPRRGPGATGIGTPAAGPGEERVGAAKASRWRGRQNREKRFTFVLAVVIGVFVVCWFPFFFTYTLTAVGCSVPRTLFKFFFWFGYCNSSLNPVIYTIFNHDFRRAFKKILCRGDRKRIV

D(1A) dopamine receptor = D(1A) dopamine receptor (Homo sapiens, UniProt P21728); type: functional, cell-based
[4] = target: T4, Gamma-aminobutyric acid receptor subunit alpha-1 (Rattus norvegicus, UniProt P62813); type: functional
Vasopressin V2 receptor = Vasopressin V2 receptor (Homo sapiens, UniProt P30518)
[5] = target: T4, Gamma-aminobutyric acid receptor subunit alpha-1
[6] = target: T5, Alpha-1A adrenergic receptor (Homo sapiens, UniProt P35348); type: functional, cell-based
T5 sequence (P35348 whole entry): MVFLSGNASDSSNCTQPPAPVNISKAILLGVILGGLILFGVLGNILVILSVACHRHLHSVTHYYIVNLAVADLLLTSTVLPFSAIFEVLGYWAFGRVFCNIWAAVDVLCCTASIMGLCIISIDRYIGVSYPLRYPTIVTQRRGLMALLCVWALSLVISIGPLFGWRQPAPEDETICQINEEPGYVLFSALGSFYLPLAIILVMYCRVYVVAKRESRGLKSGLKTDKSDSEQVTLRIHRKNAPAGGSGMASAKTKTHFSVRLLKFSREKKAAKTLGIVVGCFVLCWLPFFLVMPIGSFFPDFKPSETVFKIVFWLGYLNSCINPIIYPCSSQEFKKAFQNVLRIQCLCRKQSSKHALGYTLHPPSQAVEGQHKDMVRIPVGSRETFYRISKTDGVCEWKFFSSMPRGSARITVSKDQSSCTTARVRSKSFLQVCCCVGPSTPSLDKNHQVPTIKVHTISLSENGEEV

[7] = target: T4, Gamma-aminobutyric acid receptor subunit alpha-1; remark: listed apart in the source
Estrogen receptor = target: T6, Estrogen receptor (Homo sapiens, UniProt P03372)
T6 sequence (P03372 whole entry): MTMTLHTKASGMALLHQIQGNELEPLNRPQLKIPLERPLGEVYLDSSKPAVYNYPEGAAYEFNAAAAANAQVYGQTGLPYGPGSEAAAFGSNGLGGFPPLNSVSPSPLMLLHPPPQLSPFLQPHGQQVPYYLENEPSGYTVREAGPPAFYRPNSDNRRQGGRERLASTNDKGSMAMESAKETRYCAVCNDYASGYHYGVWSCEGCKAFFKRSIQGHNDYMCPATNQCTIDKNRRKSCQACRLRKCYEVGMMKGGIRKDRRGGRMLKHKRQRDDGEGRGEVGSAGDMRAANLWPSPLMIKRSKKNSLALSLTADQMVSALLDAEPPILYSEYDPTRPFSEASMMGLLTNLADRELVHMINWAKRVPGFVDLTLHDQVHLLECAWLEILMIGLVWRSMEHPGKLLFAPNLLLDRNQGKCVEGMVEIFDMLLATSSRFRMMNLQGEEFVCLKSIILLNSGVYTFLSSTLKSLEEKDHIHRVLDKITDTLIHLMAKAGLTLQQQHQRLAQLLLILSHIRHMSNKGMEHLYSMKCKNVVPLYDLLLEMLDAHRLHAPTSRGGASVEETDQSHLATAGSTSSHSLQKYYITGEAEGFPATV

D(3) dopamine receptor = D(3) dopamine receptor (Homo sapiens, UniProt P35462)
[8] = target: Growth hormone secretagogue receptor type 1 (Homo sapiens, UniProt Q92847)
Note: assay procedure not described here.

T4 sequence (P62813 whole entry): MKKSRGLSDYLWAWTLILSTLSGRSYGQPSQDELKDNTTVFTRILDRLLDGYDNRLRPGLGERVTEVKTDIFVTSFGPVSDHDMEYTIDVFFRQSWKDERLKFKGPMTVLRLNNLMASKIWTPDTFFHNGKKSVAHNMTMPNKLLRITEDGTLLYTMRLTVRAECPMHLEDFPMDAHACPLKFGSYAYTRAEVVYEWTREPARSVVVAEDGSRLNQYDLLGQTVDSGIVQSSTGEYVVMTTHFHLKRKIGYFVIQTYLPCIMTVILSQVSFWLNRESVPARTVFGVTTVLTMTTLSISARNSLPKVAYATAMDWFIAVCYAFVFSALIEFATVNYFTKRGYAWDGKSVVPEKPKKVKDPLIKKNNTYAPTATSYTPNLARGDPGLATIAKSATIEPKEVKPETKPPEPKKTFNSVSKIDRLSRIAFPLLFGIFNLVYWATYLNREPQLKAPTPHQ
Sequence of D(1A) dopamine receptor (P21728 whole entry): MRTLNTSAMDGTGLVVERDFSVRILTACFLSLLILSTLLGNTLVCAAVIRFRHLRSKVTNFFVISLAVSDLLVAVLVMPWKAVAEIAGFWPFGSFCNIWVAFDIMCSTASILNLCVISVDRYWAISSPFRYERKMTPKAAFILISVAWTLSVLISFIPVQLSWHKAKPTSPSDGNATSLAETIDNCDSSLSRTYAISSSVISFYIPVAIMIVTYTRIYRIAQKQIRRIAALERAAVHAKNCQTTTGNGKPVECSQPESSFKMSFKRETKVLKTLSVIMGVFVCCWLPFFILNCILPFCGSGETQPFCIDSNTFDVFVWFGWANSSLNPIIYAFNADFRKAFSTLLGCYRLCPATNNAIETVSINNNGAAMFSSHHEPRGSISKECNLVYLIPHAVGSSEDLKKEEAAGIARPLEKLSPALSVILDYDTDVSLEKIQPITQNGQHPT
Sequence of Vasopressin V2 receptor (P30518 whole entry): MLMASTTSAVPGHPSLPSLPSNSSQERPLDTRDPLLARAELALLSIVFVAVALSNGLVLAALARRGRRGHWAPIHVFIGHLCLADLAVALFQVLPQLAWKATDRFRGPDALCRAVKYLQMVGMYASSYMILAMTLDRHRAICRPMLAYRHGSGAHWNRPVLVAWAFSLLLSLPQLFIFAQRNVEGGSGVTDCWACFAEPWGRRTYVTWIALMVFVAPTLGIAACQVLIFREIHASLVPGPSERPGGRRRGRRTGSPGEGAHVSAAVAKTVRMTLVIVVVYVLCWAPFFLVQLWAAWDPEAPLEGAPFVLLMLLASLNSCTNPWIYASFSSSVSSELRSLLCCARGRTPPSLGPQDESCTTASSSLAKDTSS
Sequence of D(3) dopamine receptor (P35462 whole entry): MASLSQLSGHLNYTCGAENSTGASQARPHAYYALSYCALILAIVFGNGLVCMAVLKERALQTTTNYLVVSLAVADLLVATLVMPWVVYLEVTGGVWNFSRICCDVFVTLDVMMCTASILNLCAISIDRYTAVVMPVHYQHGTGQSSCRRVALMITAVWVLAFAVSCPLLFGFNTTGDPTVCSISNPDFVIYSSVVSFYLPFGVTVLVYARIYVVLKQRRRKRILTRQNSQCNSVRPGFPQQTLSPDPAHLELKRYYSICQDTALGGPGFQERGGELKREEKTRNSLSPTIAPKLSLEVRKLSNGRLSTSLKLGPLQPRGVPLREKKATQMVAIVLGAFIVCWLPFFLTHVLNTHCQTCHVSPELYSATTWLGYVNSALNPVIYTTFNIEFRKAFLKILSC
Sequence of Growth hormone secretagogue receptor type 1 (Q92847 whole entry): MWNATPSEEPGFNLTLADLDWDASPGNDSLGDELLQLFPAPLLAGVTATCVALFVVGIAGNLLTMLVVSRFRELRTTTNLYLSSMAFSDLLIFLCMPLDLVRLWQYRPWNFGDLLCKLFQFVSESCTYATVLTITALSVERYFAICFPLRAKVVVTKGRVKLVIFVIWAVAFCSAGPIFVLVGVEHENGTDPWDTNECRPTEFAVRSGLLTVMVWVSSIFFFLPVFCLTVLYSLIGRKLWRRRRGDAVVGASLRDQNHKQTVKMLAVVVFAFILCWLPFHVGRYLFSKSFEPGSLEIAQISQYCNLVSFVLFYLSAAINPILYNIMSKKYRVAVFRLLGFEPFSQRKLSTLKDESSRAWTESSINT

Row | Structure (SMILES) | AC50 [1] [µM] | AC50 [2] [µM] | AC50 [3] [µM] | AC50 (D(1A) dopamine receptor) [µM] | AC50 [4] [µM] | AC50 (Vasopressin V2 receptor) [µM] | AC50 [5] [µM] | AC50 [6] [µM] | AC50 [7] [µM] | AC50 (Estrogen receptor) [µM] | AC50 (D(3) dopamine receptor) [µM] | AC50 [8] [µM]
1 | CCCc1nc2c(C)cc(-c3nc4ccccc4n3C)cc2n1Cc1ccc(-c2ccccc2C(=O)O)cc1 | > 30 | > 30 | > 30 | > 30 | > 30 | > 30 | > 30 | > 30 | > 30 | > 30 | > 30 | > 30
2 | CC[C@@H]1C[C@]1(NC(=O)[C@@H]1C[C@@H]2CN1C(=O)[C@H](C(C)(C)C)NC(=O)OCC(C)(C)CCCCc1cccc3c1CN(C3)C(=O)O2)C(=O)NS(=O)(=O)C1CC1 |  |  |  |  |  |  |  |  | > 30 | > 30 |  | 
3 | O=C(O)c1ccccc1 [BENZOIC ACID] |  |  |  |  |  |  |  |  | > 30 | > 30 |  | 
4 | Nc1c(CC(=O)O)cccc1C(=O)c1ccc(Br)cc1 [BROMFENAC] |  |  |  |  |  |  |  |  | > 30 | > 30 |  | 
5 | CC(C)NC(=N)NC(=N)Nc1ccc(Cl)c(Cl)c1 [CHLORPROGUANIL] | > 30 |  | > 30 | > 30 | > 30 |  | > 30 | > 30 | > 30 | > 30 | > 30 | 
6 | C[N+](C)(C)CCOP(=O)(O)OP(=O)([O-])OC[C@H]1O[C@@H](n2ccc(N)nc2=O)[C@H](O)[C@@H]1O [CITICOLINE] | > 30 |  | > 30 | > 30 | > 30 |  | > 30 | > 30 | > 30 | > 30 | > 30 | 
7 | CC[C@H]1OC(=O)[C@H](C)[C@@H](O[C@H]2C[C@@](C)(OC)[C@@H](O)[C@H](C)O2)[C@H](C)[C@@H](O[C@@H]2O[C@H](C)C[C@H](N(C)C)[C@H]2O)[C@](C)(O)C[C@@H](C)[C@@H]2N[C@@H](COCCOC)O[C@H]([C@H]2C)[C@]1(C)O [DIRITHROMYCIN] |  |  |  |  |  |  |  |  | > 30 | > 30 |  | 
8 | O=C(O)Cc1ccccc1Oc1ccc(Cl)cc1Cl [FENCLOFENAC] | > 10 | > 30 | > 10 | > 30 | > 10 | > 30 | > 10 | > 30 | > 30 | > 30 | > 10 | > 30
9 | CC(C)C(=O)Oc1ccc(CO)cc1[C@H](CCN(C(C)C)C(C)C)c1ccccc1 [FESOTERODINE] |  |  |  |  |  |  |  |  | > 30 | > 30 |  | 
10 | Cc1ccc(C)c(OCCCC(C)(C)C(=O)O)c1 [GEMFIBROZIL] | > 10 | > 30 | > 10 | > 10 | > 10 | > 30 | > 10 | > 30 | > 30 | > 30 | > 10 | > 30
11 | C#C[C@]1(O)C=C[C@H]2[C@@H]3CCC4=CC(=O)CC[C@@H]4[C@H]3CC[C@@]21CC [GESTODENE] |  |  |  |  |  |  |  |  | 2.16 | 1.2 |  | 
12 | COc1ccccc1OC1(C)OC(=O)c2ccccc2O1 (configuration not stated) [GUAIMESAL] |  | > 30 |  |  |  | > 30 |  |  | > 30 | > 30 |  | > 30
13 | C[N+](C)(CCCCCC[N+](C)(C)C1c2ccccc2-c2ccccc21)C1c2ccccc2-c2ccccc21 [HEXAFLUORENIUM] |  |  |  |  |  |  |  |  | > 30 | > 30 |  | 
14 | CCCCC(CC)CN1CN(CC(CC)CCCC)CC(C)(N)C1 (configuration not stated) [HEXETIDINE] |  |  |  |  |  |  |  |  | > 30 | > 30 |  | 
15 | Cc1cc(=O)oc2cc(O)ccc12 [HYMECROMONE] |  |  |  |  |  |  |  |  | > 30 | > 30 |  | 
16 | COc1cc(C(C)=O)ccc1OCCCN1CCC(c2noc3cc(F)ccc23)CC1 [ILOPERIDONE] | > 30 | 9.33 | > 30 | > 30 | 12.9 |  |  | > 30 | > 30 | > 30 | 0.0373 | > 30
17 | O=C(NNCS(=O)(=O)O)c1ccncc1 [METHANIAZIDE] |  |  |  |  |  |  |  |  | > 30 | > 30 |  | 
18 | Cc1cc(=O)[nH]c(=S)[nH]1 [METHYLTHIOURACIL] |  |  |  |  |  |  |  |  | > 30 | > 30 |  | 
19 | C=CC(=O)Nc1cccc(Oc2nc(Nc3ccc(N4CCN(C)CC4)cc3)nc3ccsc23)c1 [OLMUTINIB] |  |  |  |  |  |  |  |  | > 30 | 28.6 |  | 
20 | Nc1cccc2c1C(=O)N(C1CCC(=O)NC1=O)C2=O (configuration not stated) [POMALIDOMIDE] |  |  |  |  |  |  |  |  | > 30 | > 30 |  | 
21 | C[Se]CC[C@H](N)C(=O)O [SELENOMETHIONINE] |  |  |  |  |  |  |  |  | > 30 | > 30 |  | 
22 | C[C@]12C=CC(=O)C=C1CC[C@H]1[C@@H]3C[C@@H](O)[C@](O)(C(=O)CO)[C@@]3(C)C[C@H](O)[C@@]12F [TRIAMCINOLONE] |  |  |  |  |  |  |  |  | > 30 | > 30 |  | 
23 | CC(C)C[C@H](NC(=O)[C@@H](O)[C@H](N)Cc1ccccc1)C(=O)O [UBENIMEX] | > 30 |  | > 30 | > 30 | > 30 |  | > 30 | > 30 | > 30 | > 30 | > 30 | 
24 | O=C1Cc2cc(CCN3CCN(c4nsc5ccccc45)CC3)c(Cl)cc2N1 [ZIPRASIDONE] | > 10 | > 30 |  |  | > 10 | > 30 | > 10 | > 30 | > 30 | > 30 |  | > 30
